In patent US20110124877A1, “5-BENZYL-4-AZOLYLMETHYL-4-SPIRO[2.4]HEPTANOL DERIVATIVES, METHODS FOR PRODUCING THE SAME, AND AGRO-HORTICULTURAL AGENTS AND INDUSTRIAL MATERIAL PROTECTING AGENTS THEREOF” (KUREHA CORPORATION, priority 2008, published 2011):

Experiments:
[1] = test system: wheat septoria bloth microorganism (Septoria tritici); test: Antimicroorganism effect, mycelial extension on PDA plate; assay type: cell-based; conditions: Zymoseptoria tritici, PDA plate medium, 50 mg/l, 1 to 3 days, read-out: growth inhibition grade
[2] = test system: wheat stagonospora blotch microorganism (Phaeosphaeria nodorum); test: as above; assay type: cell-based; conditions: Parastagonospora nodorum, PDA plate medium, 50 mg/l, 1 to 3 days, read-out: growth inhibition grade
[3] = test system: wheat eye spot microorganism (Pseudocercosporella herpotrichoides); test: as above; assay type: cell-based; conditions: Oculimacula yallundae, PDA plate medium, 50 mg/l, 1 to 3 days, read-out: growth inhibition grade
[4] = test system: wheat pink snow mold microorganism (Microdochium nivale); test: as above; assay type: cell-based; conditions: PDA plate medium, 50 mg/l, 1 to 3 days, read-out: growth inhibition grade
[5] = test system: wheat take-all microorganism (Gaeumannomyces graminis); test: as above; assay type: cell-based; conditions: PDA plate medium, 50 mg/l, 1 to 3 days, read-out: growth inhibition grade
[6] = test system: barley stripe microorganism (Pyrenophora graminea); test: as above; assay type: cell-based; conditions: PDA plate medium, 50 mg/l, 1 to 3 days, read-out: growth inhibition grade
[7] = test system: barley scald microorganism (Rhynchosporium secalis); test: as above; assay type: cell-based; conditions: PDA plate medium, 50 mg/l, 1 to 3 days, read-out: growth inhibition grade
[8] = test system: wheat fusarium blight microorganism (Fusarium graminearum); test: microbe, parasite or virus in culture; assay type: cell-based; conditions: read-out: growth inhibition grade
[9] = test system: barley loose smut microorganism (Ustilago nuda); test: Antimicroorganism effect, mycelial extension on PDA plate; assay type: cell-based; conditions: PDA plate medium, 50 mg/l, 1 to 3 days, read-out: growth inhibition grade
[10] = test system: rice blast microorganism (Pyricularia oryzae); test: microbe, parasite or virus in culture; assay type: cell-based; conditions: read-out: growth inhibition grade
[11] = test system: ricesheath blight microorganism (Rhizoctonia solani); test: Antimicroorganism effect, mycelial extension on PDA plate; assay type: cell-based; conditions: PDA plate medium, 50 mg/l, 1 to 3 days, read-out: growth inhibition grade
[12] = test system: rice bakanae disease microorganism (Giberella fujikuroi); test: as above; assay type: cell-based; conditions: PDA plate medium, 50 mg/l, 1 to 3 days, read-out: growth inhibition grade
[13] = test system: rice seedling blight microorganism (Rhizopus) (Rhizopus oryzae); test: as above; assay type: cell-based; conditions: Rhizopus arrhizus, PDA plate medium, 50 mg/l, 1 to 3 days, read-out: growth inhibition grade
[14] = test system: apple alternaria blotch microorganism (Alternaria alternata); test: as above; assay type: cell-based; conditions: PDA plate medium, 50 mg/l, 1 to 3 days, read-out: growth inhibition grade
[15] = test system: sclerotinia rot microorganism (Sclerotinia sclerotiorum); test: as above; assay type: cell-based; conditions: PDA plate medium, 50 mg/l, 1 to 3 days, read-out: growth inhibition grade
[16] = test system: gray mold microorganism (Botritis cinerea); test: as above; assay type: cell-based; conditions: PDA plate medium, 50 mg/l, 1 to 3 days, read-out: growth inhibition grade
[17] = test system: anthracnose microorganism (Glomerella cingulata); test: as above; assay type: cell-based; conditions: Colletotrichum gloeosporioides, PDA plate medium, 50 mg/l, 1 to 3 days, read-out: growth inhibition grade
[18] = test system: cucumber fusarium wilt microorganism (Fusarium oxysporum); test: as above; assay type: cell-based; conditions: PDA plate medium, 50 mg/l, 1 to 3 days, read-out: growth inhibition grade
[19] = test system: citrous blue mold microorganism (Penicillium italicum); test: as above; assay type: cell-based; conditions: PDA plate medium, 50 mg/l, 1 to 3 days, read-out: growth inhibition grade
[20] = test system: sugar beet cercospora leaf spot microorganism (Cercospora beticola); test: as above; assay type: cell-based; conditions: PDA plate medium, 50 mg/l, 1 to 3 days, read-out: growth inhibition grade
[21] = test system: Aspergillus microorganism (Aspergillus sp.); test: as above; assay type: cell-based; conditions: PDA plate medium, 50 mg/l, 1 to 3 days, read-out: growth inhibition grade
[22] = test system: Tricoderma microorganism (Trichoderma sp.); test: as above; assay type: cell-based; conditions: PDA plate medium, 50 mg/l, 1 to 3 days, read-out: growth inhibition grade
[23] = test system: penicillium microorganism (Penicillium sp.); test: as above; assay type: cell-based; conditions: PDA plate medium, 50 mg/l, 1 to 3 days, read-out: growth inhibition grade
[24] = test system: Cladosporium microorganism (Cladosporium sp.); test: as above; assay type: cell-based; conditions: PDA plate medium, 50 mg/l, 1 to 3 days, read-out: growth inhibition grade
[25] = test system: Mucor microorganism (Mucor sp.); test: as above; assay type: cell-based; conditions: PDA plate medium, 50 mg/l, 1 to 3 days, read-out: growth inhibition grade
[26] = test system: Aureobasidium microorganism (Aureobasidium sp.); test: as above; assay type: cell-based; conditions: PDA plate medium, 50 mg/l, 1 to 3 days, read-out: growth inhibition grade
[27] = test system: Curvularia microorganism (Curvularia sp.); test: as above; assay type: cell-based; conditions: PDA plate medium, 50 mg/l, 1 to 3 days, read-out: growth inhibition grade
[28] = test system: wood denaturing microorganism (Tyromyces palustris); test: as above; assay type: cell-based; conditions: PDA plate medium, 50 mg/l, 1 to 3 days, read-out: growth inhibition grade
[29] = test system: wood denaturing microorganism (Coriolus versicolor); test: as above; assay type: cell-based; conditions: Trametes versicolor, PDA plate medium, 50 mg/l, 1 to 3 days, read-out: growth inhibition grade
[30] = test system: cucumber gray mold microorganism; test: Cucumber gray mold preventing effect assay; assay type: in vivo, Botrytis cinerea; conditions: analogous assay at 25 mg/l
Procedure: The sprayed leaves were air-dried, and loaded with a paper disc (8 mm in diameter) soaked with a spore suspension of a cucumber gray mold microorganism, and kept at 20 degrees C. and a high humidity. 4 Days after inoculation, the cucumber gray mold severity was investigated, and the protective value was calculated by the following equation. [table]

OC1(Cn2cncn2)C(Cc2ccc(F)cc2)CCC12CC2 (single isomer, unassigned) [Compound I-7, 5-(4-fluorobenzyl)-4-(1H-1,2,4-triazol-1-ylmethyl)-4-spiro[2.4]heptanol]
inhibition at 50 µg/mL [1]: > 90%
inhibition at 50 µg/mL [2]: > 90%
inhibition at 50 µg/mL [3]: > 90%
inhibition at 50 µg/mL [4]: 70 to 90%
inhibition at 50 µg/mL [5]: > 90%
inhibition at 50 µg/mL [6]: > 90%
inhibition at 50 µg/mL [7]: > 90%
inhibition at 50 µg/mL [8]: > 90%
inhibition at 50 µg/mL [9]: 70 to 90%
inhibition at 50 µg/mL [10]: > 90%
inhibition at 50 µg/mL [11]: 70 to 90%
inhibition at 50 µg/mL [12]: > 90%
inhibition at 50 µg/mL [13]: 70 to 90%
inhibition at 50 µg/mL [14]: 70 to 90%
inhibition at 50 µg/mL [15]: > 90%
inhibition at 50 µg/mL [16]: > 90%
inhibition at 50 µg/mL [17]: > 90%
inhibition at 50 µg/mL [18]: > 90%
inhibition at 50 µg/mL [19]: > 90%
inhibition at 50 µg/mL [20]: > 90%
inhibition at 50 µg/mL [21]: > 90%
inhibition at 50 µg/mL [22]: > 90%
inhibition at 50 µg/mL [23]: > 90%
inhibition at 50 µg/mL [24]: > 90%
inhibition at 50 µg/mL [25]: 70 to 90%
inhibition at 50 µg/mL [26]: 70 to 90%
inhibition at 50 µg/mL [27]: 70 to 90%
inhibition at 50 µg/mL [28]: > 90%
inhibition at 50 µg/mL [29]: > 90%
melting point: 89 to 90 °C

OC1(Cn2cncn2)C(Cc2ccc(F)cc2)CCC12CC2 (single isomer, unassigned) [Compound I-8, 5-(4-fluorobenzyl)-4-(1H-1,2,4-triazol-1-ylmethyl)-4-spiro[2.4]heptanol]
melting point: 139 to 140 °C

C[C@]12C[C@H]1C[C@H](Cc1ccc(Cl)cc1)[C@@]2(O)Cn1cncn1 (stereo in doubt) [Comparative Compound (A), 3-(4-chlorobenzyl)-1-methyl-2-(1H-1,2,4-triazol-1-ylmethyl)bicyclo[3.1.0]hexan-2-ol, reference compound]
Controlling value [30]: 54%

CC1(C)CC12CCC(Cc1ccc(Cl)cc1)C2(O)Cn1cncn1 (stereo not shown) [Compound I-101, 5-(4-chlorobenzyl)-1,1-dimethyl-4-(1H-1,2,4-triazol-1-ylmethyl)-4-spiro[2.4]heptanol]
inhibition at 50 µg/mL [1]: > 90%
inhibition at 50 µg/mL [2]: > 90%
inhibition at 50 µg/mL [3]: > 90%
inhibition at 50 µg/mL [4]: 70 to 90%
inhibition at 50 µg/mL [5]: > 90%
inhibition at 50 µg/mL [6]: > 90%
inhibition at 50 µg/mL [7]: > 90%
inhibition at 50 µg/mL [8]: > 90%
inhibition at 50 µg/mL [9]: 70 to 90%
inhibition at 50 µg/mL [10]: > 90%
inhibition at 50 µg/mL [11]: 70 to 90%
inhibition at 50 µg/mL [12]: > 90%
inhibition at 50 µg/mL [13]: 70 to 90%
inhibition at 50 µg/mL [14]: 70 to 90%
inhibition at 50 µg/mL [15]: > 90%
inhibition at 50 µg/mL [16]: > 90%
inhibition at 50 µg/mL [17]: > 90%
inhibition at 50 µg/mL [18]: > 90%
inhibition at 50 µg/mL [19]: > 90%
inhibition at 50 µg/mL [20]: > 90%
inhibition at 50 µg/mL [21]: > 90%
inhibition at 50 µg/mL [22]: > 90%
inhibition at 50 µg/mL [23]: > 90%
inhibition at 50 µg/mL [24]: > 90%
inhibition at 50 µg/mL [25]: 70 to 90%
inhibition at 50 µg/mL [26]: 70 to 90%
inhibition at 50 µg/mL [27]: 70 to 90%
inhibition at 50 µg/mL [28]: > 90%
inhibition at 50 µg/mL [29]: > 90%
